Laboratory results published in patent US10927085B2, “1,2-naphthoquinone based derivative and method of preparing the same” (HUEN Co., Ltd., priority 2013, dated 2021).
Where two headings read alike, the source gives them in different places.

Key:
[1] = biological target: NQO1 protein (Homo sapiens, UniProt P15559); assay: NQO1 activity measurement (cytochrome C reduction); format: biochemical
Description: An enzyme reaction solution included 25 mM Tris/HCl (pH 7.4), 0.14% bovine serum albumin, 200 μM NADH, 77 μM cytochrome C, and 5 ng of NQO1 protein. Enzymatic reaction was initiated by adding NADH and performed at 37° C. In this regard, a reaction rate was measured by observing absorbance, which was increased due to reduction of cytochrome C, at 550 nm for 10 minutes and NQO1 activity was represented as an amount of reduced cytochrome C [nmol cytochrome C reduced/min/μg protein].
Extinction coefficient for cytochrome C:21.1 mmol/L/cm=21.1 μmol/ml/cm

[2] = tested on: cells; assay: Measurement of lactate change amount within cells; format: cell-based
Description: Cells were treated with 400 μl of 6% PCA, and then collected and extracted. Centrifugation (13,000 rpm, 10 min) was performed. A precipitate was dried using a Speed-Vac and then a weight of dried precipitate was measured. A supernatant was neutralized using 400 μl of 1 M KOH and a final volume thereof was adjusted to 1 ml using 0.33 M KH2PO4/K2HPO4, pH 7.5. Centrifugation (13,000 rpm, 10 min) was performed and the amount of lactate in a supernatant was measured (Megazyme, K-LATE).

[3] = tested on: C57BL/6J Lep ob/ob mice; assay: Weight loss effects in obese mice (ob/ob); format: in vivo; details: for weight increase ratio vs controls (FIG. 1): Exp. Ex. 3-1: 6.5 week-old ob/ob mice, 100 mg/kg orally once every day for two weeks
Description: 6.5 week-old C57BL/6J Lep ob/ob mice having genetic obesity characteristics available from ORIENTBIO were prepared. Two mice were raised in each polycarbonate breeding cage (200 W×260 L×130H (mm), Three-shine) in which temperature was 22 to 24° C., relative humidity was 30 to 50%, illuminance was 150 to 300 lux, night and day were 12 hours, and exhaust was performed at 10 to 15 air changes per hour. As a feed, low fat diet (11.9 kcal % fat, 5053, Labdiet) manufactured by ORIENTBIO was used. The feed was contained in a feeder and free intake was allowed. As drinking water, water, which was contained in a 250 mL polycarbonate based bottle, purified through a filter and a sterilizer was used and free intake was allowed.
For administration, a disposable syringe fitted with a sonde for oral administration was used and 10 ml/kg of the compound was orally administered into the stomach. As controls, three C57BL/6J Lep ob/ob mice were administered 0.1% SLS in an amount of 100 mg/kg in the same manner as described above. After administration, a time-dependent weight increase ratio was measured and results are illustrated in FIG. 1 below.
Weights of the experimental animals were measured immediately before administration of a test material and six times a week from an administration initiation day to a test termination day. Increased total weights were calculated by subtracting weights measured on an experiment initiation day from weights measured one day before an experiment termination day. Food intake amounts were calculated by measuring feed supply amounts and remaining amounts twice a week from an initiation day of test material administration to a test termination day for each individual.
Weight increase ratios, weight change, and intake amounts depending on administration time were measured and results are illustrated in FIG. 2 below.
Weight increase ratios, weight change, and intake amounts depending on administration time were measured and results are illustrated in FIG. 3 below.
Weight increase ratios, weight change, and intake amounts depending on administration time were measured and results are illustrated in FIG. 4 below.
Weight increase ratios, weight change, and intake amounts depending on administration time were measured and results are illustrated in FIG. 5 below.
Weight increase ratios, weight change, and intake amounts depending on administration time were measured and results are illustrated in FIG. 6 below.
Weight increase ratios, weight change, and intake amounts depending on administration time were measured and results are illustrated in FIG. 7 below.
Weight increase ratios, weight change, and intake amounts depending on administration time were measured and results are illustrated in FIG. 8 below.

[4] = 5 μM, 37° C., absorbance at 550 nm for 10 minutes, 200 μM NADH, 77 μM cytochrome C, 5 ng NQO1 protein
[5] = Exp. Ex. 3-4: 11 week-old ob/ob mice, 100 mg/kg orally, six days
[6] = Exp. Ex. 3-2: 10.5 week-old ob/ob mice, 150 mg/kg orally, six days
[7] = Exp. Ex. 3-8: 9.5 week-old ob/ob mice, 150 mg/kg orally, otherwise as 3-1
[8] = Exp. Ex. 3-7: 6.5 week-old ob/ob mice, 150 mg/kg orally, seven days
[9] = Exp. Ex. 3-6: 12 week-old ob/ob mice, 150 mg/kg orally, seven days
[10] = Exp. Ex. 3-3: 6 week-old ob/ob mice, 100 mg/kg orally, otherwise as 3-1

NQO1 protein, sequence (P15559 whole entry, species assumed): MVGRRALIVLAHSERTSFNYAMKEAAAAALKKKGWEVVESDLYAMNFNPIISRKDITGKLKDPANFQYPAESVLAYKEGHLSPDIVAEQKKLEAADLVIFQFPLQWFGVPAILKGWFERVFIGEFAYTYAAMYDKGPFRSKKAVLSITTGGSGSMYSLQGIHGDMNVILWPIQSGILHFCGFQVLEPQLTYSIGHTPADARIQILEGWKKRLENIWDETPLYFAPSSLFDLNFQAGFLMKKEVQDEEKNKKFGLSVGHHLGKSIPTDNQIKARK

CC(C)(C)c1nc2c(o1)-c1ccccc1C(=O)C2=O [Example 2, 2-tert-butylnaphtho[2,1-d]oxazole-4,5-dione]
NQO1 activity (5 μM, [nmol cytochrome C reduced/min/μg protein]) [1, 4]: 243.2 nmol cytochrome C reduced/min/μg protein | Lactate change amount within cells (nmol/mg cell) [2]: 6.8 nmol/mg cell | weight increase ratio vs controls (FIG. 1) [3]: significantly decreased

CC(C)(C)c1nc2c(o1)C(=O)C(=O)c1ccccc1-2 [Example 28, 2-tert-butylnaphtho[1,2-d]oxazole-4,5-dione]
Lactate change amount within cells (nmol/mg cell) [2]: 7.4 nmol/mg cell | intake amount vs controls (FIG. 3) ([3]; mouse, in vivo, po, 100 mg/kg): significantly decreased

CC(C)c1nc2c(o1)-c1ccccc1C(=O)C2=O [Example 1, 2-isopropylnaphtho[2,1-d]oxazole-4,5-dione]
NQO1 activity (5 μM, [nmol cytochrome C reduced/min/μg protein]) [1, 4]: 255.2 nmol cytochrome C reduced/min/μg protein | Lactate change amount within cells (nmol/mg cell) [2]: 5.2 nmol/mg cell | weight increase ratio vs controls (FIG. 1) [3]: significantly decreased

CCn1c2c(oc1=O)-c1ccccc1C(=O)C2=O [Example 41]
NQO1 activity (5 μM, [nmol cytochrome C reduced/min/μg protein]) [1]: 237.1 nmol cytochrome C reduced/min/μg protein | Lactate change amount within cells (nmol/mg cell) [2]: 5.2 nmol/mg cell | intake amount vs controls (FIG. 7) ([3]; mouse, in vivo, po, 150 mg/kg): significantly decreased in some sections | weight change vs controls (FIG. 7) ([3]; mouse, in vivo, po, 150 mg/kg): significantly decreased in some sections | weight increase ratio vs controls (FIG. 7) ([3]; mouse, in vivo, po, 150 mg/kg): significantly decreased in some sections

O=C1C(=O)c2oc(-c3ccccc3)nc2-c2ccccc21 [Example 27]
Lactate change amount within cells (nmol/mg cell) [2]: 5.8 nmol/mg cell | weight change vs controls (FIG. 4) ([3]; mouse, in vivo, po, 100 mg/kg): significantly decreased

COc1ccc(Br)c2c1-c1oc(C(C)C)nc1C(=O)C2=O [Example 9, 6-bromo-2-isopropyl-9-methoxynaphtho[2,1-d]oxazole-4,5-dione]
NQO1 activity (5 μM, [nmol cytochrome C reduced/min/μg protein]) [1, 4]: 73.6 nmol cytochrome C reduced/min/μg protein | Lactate change amount within cells (nmol/mg cell) [2]: 7.3 nmol/mg cell | weight change vs controls (FIG. 4) [3, 5]: significantly decreased | weight increase ratio vs controls (FIG. 4) [3, 5]: significantly decreased

O=C1C(=O)c2nc(CN3CCOCC3)oc2-c2ccccc21 [Example 4, 2-(morpholinomethyl)naphtho[2,1-d]oxazole-4,5-dione]
NQO1 activity (5 μM, [nmol cytochrome C reduced/min/μg protein]) [1, 4]: 207.3 nmol cytochrome C reduced/min/μg protein | Lactate change amount within cells (nmol/mg cell) [2]: 9.3 nmol/mg cell | intake amount vs controls (FIG. 2) [3, 6]: significantly decreased | weight change vs controls (FIG. 2) [3, 6]: significantly decreased | weight increase ratio vs controls (FIG. 2) [3, 6]: significantly decreased

O=C1C(=O)c2c(oc(=O)n2Cc2ccc(F)cc2)-c2ccccc21 [Example 42]
NQO1 activity (5 μM, [nmol cytochrome C reduced/min/μg protein]) [1, 4]: 208.0 nmol cytochrome C reduced/min/μg protein | Lactate change amount within cells (nmol/mg cell) [2]: 7.1 nmol/mg cell | intake amount vs controls (FIG. 8) [3, 7]: significantly decreased in some sections | weight change vs controls (FIG. 8) [3, 7]: significantly decreased in some sections | weight increase ratio vs controls (FIG. 8) [3, 7]: significantly decreased in some sections

CC(C)(C)c1nc2c(o1)C(=O)C(=O)c1cc(N)ccc1-2 [Example 30, 7-amino-2-tert-butylnaphtho[1,2-d]oxazole-4,5-dione]
Lactate change amount within cells (nmol/mg cell) [2]: 7.3 nmol/mg cell | intake amount vs controls (FIG. 5) ([3]; mouse, in vivo, po, 150 mg/kg): significantly decreased | weight change vs controls (FIG. 5) ([3]; mouse, in vivo, po, 150 mg/kg): significantly decreased

CN(C)Cc1nc2c(o1)-c1ccccc1C(=O)C2=O [Example 5, 2-((dimethylamino)methyl)naphtho[2,1-d]oxazole-4,5-dione]
Lactate change amount within cells (nmol/mg cell) [2]: 5.9 nmol/mg cell | intake amount vs controls (FIG. 2) ([3]; mouse, in vivo, po, 150 mg/kg): significantly decreased | weight change vs controls (FIG. 2) ([3]; mouse, in vivo, po, 150 mg/kg): significantly decreased

CCc1nc2c(o1)C(=O)C(=O)c1ccccc1-2 [Example 51]
NQO1 activity (5 μM, [nmol cytochrome C reduced/min/μg protein]) [1, 4]: 240.9 nmol cytochrome C reduced/min/μg protein | Lactate change amount within cells (nmol/mg cell) [2]: 5.7 nmol/mg cell | intake amount vs controls (FIG. 7) [3, 8]: significantly decreased in some sections | weight change vs controls (FIG. 7) [3, 8]: significantly decreased in some sections | weight increase ratio vs controls (FIG. 7) [3, 8]: significantly decreased in some sections

O=C1C(=O)c2oc(-c3ccc(F)cc3)nc2-c2cccnc21 [Example 36]
NQO1 activity (5 μM, [nmol cytochrome C reduced/min/μg protein]) [1, 4]: 936.1 nmol cytochrome C reduced/min/μg protein | Lactate change amount within cells (nmol/mg cell) [2]: 7.3 nmol/mg cell | intake amount vs controls (FIG. 6) [3, 9]: significantly decreased | weight change vs controls (FIG. 6) [3, 9]: significantly decreased | weight increase ratio vs controls (FIG. 6) [3, 9]: significantly decreased

COc1cccc2c1-c1oc(C(C)C)nc1C(=O)C2=O [Example 8, 2-isopropyl-9-methoxynaphtho[2,1-d]oxazole-4,5-dione]
NQO1 activity (5 μM, [nmol cytochrome C reduced/min/μg protein]) [1, 4]: 205.1 nmol cytochrome C reduced/min/μg protein | Lactate change amount within cells (nmol/mg cell) [2]: 6.2 nmol/mg cell | intake amount vs controls (FIG. 3) [3, 10]: significantly decreased | weight increase ratio vs controls (FIG. 3) [3, 10]: significantly decreased
